A word on the pEC50: it is −log10 of the EC50, conventionally taken in molar units.

These results are taken from US10221138B2, “Biaryl derivatives as GPR120 agonists” (LG CHEM, LTD., priority 2013, dated 2019).

The structures appear in SMILES notation. pEC50: −log10 of the molar value. Where only a bound is given, the exact number is not on record here.

This assay concerns the target T1, hGPR120 (Homo sapiens, UniProt Q5NUL3).
T1 construct: expressed in transfected cells; host or cells: CHO-K1
T1 sequence (Q5NUL3 1-361): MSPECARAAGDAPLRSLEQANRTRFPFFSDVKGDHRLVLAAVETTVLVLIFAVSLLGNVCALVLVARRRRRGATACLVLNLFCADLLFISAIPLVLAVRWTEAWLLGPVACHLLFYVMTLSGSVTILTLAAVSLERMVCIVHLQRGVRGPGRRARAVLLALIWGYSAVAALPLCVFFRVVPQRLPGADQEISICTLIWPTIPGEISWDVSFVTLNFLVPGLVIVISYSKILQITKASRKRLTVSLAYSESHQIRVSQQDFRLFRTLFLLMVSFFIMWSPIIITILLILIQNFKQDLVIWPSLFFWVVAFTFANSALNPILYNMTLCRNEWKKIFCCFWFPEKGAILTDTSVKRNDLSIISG
As to the kind of experiment: Measurement of activity of GPR120 agonist (cell-based calcium fluorescence assay). The note with it: CHO-K1 cells expressing Ga16 and hGPR120, Calcium 5 dye fluorescence; activity class; read-out: EC50. A digest of the protocol: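 CHO-K1 cells co-expressing Gα16 and hGPR120, plated 18 h, loaded with Calcium 5 dye for 1 h at 37 °C, then given serially diluted agonists (final 0.5% DMSO). Fluorescence increase expressed as relative % of the 1% DMSO-only signal.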
With `O=C(O)CCCCCOc1c(F)cc(-c2cccnc2SC2CCC2)cc1F` [Example 274, 6-[4-(2-cyclobutylsulfanyl-3-pyridyl)-2,6-difluoro-phenoxy]hexanoic acid], the pEC50 was greater than 6.70. `O=C(O)CCCCCOc1c(F)cc(-c2cccnc2SC2CCCC2)cc1F` [Example 275, 6-[4-(2-cyclopentylsulfanyl-3-pyridyl)-2,6-difluoro-phenoxy]hexanoic acid]: the pEC50 was 5.70 to 6.70. For the compound `O=C(O)CCCCCSc1c(F)cc(-c2cccnc2OC2CCCC2)cc1F` [Example 276, 6-[4-(2-cyclopentyloxy-pyridin-3-yl)-2,6-difluoro-phenylsulfanyl]-hexanoic acid], the pEC50 was 5.70 to 6.70. `O=C(O)CCCCCSc1c(F)cc(-c2cccnc2SC2CCCC2)cc1F` [Example 277, 6-[4-(2-cyclopentylsulfanyl-pyridin-3-yl)-2,6-difluoro-phenylsulfanyl]-hexanoic acid]: the pEC50 is 5.70 to 6.70. The value for `O=C(O)CCCCCSc1c(F)cc(-c2cccnc2SC2CCC2)cc1F` [Example 278, 6-[4-(2-cyclobutylsulfanyl-pyridin-3-yl)-2,6-difluoro-phenylsulfanyl]-hexanoic acid] was 5.70 to 6.70; that for `CCCSc1ncccc1-c1cc(F)c(SCCCCCC(=O)O)c(F)c1` [Example 279, 6-[2,6-difluoro-4-(2-propylsulfanyl-pyridin-3-yl)-phenylsulfanyl]-hexanoic acid] was 5.70 to 6.70.
